Measured values from US20130035326A1 (AMBIT BIOSCIENCES CORPORATION, priority 2009, published 2013).

Legend:
FLT3 kinase = molecular target: T1, FLT3 kinase (Homo sapiens, UniProt P36888); experiment: Competition binding assay, FLT3 Kd
T1 construct: made in house; host or cells: T7 phage display or HEK-293 cells
T1 sequence (P36888 27-993): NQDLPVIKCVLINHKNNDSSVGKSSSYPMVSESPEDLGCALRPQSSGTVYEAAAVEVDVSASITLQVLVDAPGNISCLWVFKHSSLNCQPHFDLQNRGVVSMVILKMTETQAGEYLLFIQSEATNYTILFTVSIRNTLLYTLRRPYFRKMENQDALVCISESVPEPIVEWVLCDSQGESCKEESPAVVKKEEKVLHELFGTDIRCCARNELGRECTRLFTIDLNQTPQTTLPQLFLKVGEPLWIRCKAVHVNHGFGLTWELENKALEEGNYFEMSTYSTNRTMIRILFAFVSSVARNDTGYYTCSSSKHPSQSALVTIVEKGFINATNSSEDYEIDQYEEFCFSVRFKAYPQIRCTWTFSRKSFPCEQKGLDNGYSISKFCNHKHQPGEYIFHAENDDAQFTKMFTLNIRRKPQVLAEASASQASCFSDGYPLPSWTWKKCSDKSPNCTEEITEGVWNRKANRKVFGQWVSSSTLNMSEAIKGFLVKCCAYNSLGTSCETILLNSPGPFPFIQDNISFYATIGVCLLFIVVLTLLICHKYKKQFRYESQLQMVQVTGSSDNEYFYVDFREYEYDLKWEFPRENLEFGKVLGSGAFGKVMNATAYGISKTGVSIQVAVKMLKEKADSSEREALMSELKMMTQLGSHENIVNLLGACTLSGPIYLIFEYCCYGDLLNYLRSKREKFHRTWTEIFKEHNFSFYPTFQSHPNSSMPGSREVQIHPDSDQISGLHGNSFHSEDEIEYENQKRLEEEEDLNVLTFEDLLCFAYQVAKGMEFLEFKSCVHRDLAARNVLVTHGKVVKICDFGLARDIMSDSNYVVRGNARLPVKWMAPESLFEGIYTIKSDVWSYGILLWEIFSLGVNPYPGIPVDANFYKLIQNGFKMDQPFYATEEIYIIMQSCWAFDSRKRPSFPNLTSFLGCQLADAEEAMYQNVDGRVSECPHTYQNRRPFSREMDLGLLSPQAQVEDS
Description: (§1) In certain embodiments, competition binding assays were performed as described in Fabian et al., Nature Biotechnology 2005, 23,329-336.
(§2) Competition binding assays used herein were developed, validated and performed as described in Fabian et al., Nature Biotechnology 2005, 23,329-336. Kinases were produced as fusions to T7 phage (See, Fabian et al. or WO04/015142) or alternatively, the kinases were expressed in HEK-293 cells and subsequently tagged with DNA for PCR detection (See, WO08/005,310). For the binding assays, streptavidin-coated magnetic beads were treated with biotinylated affinity ligands for 30 min at room temperature to generate affinity resins. The liganded beads were blocked with excess biotin and washed with blocking buffer (SeaBlock (Pierce), 1% BSA, 0.05% Tween 20, 1 mM DTT) to remove unbound ligand and to reduce non-specific binding. Binding reactions were assembled by combining kinase, liganded affinity beads, and test compounds in 1× binding buffer (20% SeaBlock, 0.17×PBS, 0.05% Tween 20, 6 mM DTT). Test compounds were prepared as 100× stocks in DMSO and diluted into the aqueous environment. Kds were determined using an eleven point threefold serial dilutions. DMSO or control compounds were was added to control assays lacking a test compound. Primary screen assays were performed in polypropylene 384-well plates in a final volume of 20-40 μL, while Kd determinations were performed in polystyrene 96-well plates in a final volume of 135 μL. The assay plates were incubated at room temperature with shaking for 1 hour to allow the binding reactions to reach equilibrium, and the affinity beads were washed extensively with wash buffer (1×PBS, 0.05% Tween 20) to remove unbound protein. The beads were then resuspended in elution buffer (1×PBS, 0.05% Tween 20, 0.5 μM non-biotinylated affinity ligand) and incubated at room temperature with shaking for 30 min. The kinase concentration in the eluates was measured by quantitative PCR.

KIT kinase = molecular target: T2, KIT kinase (Homo sapiens, UniProt P10721); experiment: Competition binding assay, KIT Kd
T2 construct: made in house; host or cells: T7 phage display or HEK-293 cells
T2 sequence (P10721 26-976): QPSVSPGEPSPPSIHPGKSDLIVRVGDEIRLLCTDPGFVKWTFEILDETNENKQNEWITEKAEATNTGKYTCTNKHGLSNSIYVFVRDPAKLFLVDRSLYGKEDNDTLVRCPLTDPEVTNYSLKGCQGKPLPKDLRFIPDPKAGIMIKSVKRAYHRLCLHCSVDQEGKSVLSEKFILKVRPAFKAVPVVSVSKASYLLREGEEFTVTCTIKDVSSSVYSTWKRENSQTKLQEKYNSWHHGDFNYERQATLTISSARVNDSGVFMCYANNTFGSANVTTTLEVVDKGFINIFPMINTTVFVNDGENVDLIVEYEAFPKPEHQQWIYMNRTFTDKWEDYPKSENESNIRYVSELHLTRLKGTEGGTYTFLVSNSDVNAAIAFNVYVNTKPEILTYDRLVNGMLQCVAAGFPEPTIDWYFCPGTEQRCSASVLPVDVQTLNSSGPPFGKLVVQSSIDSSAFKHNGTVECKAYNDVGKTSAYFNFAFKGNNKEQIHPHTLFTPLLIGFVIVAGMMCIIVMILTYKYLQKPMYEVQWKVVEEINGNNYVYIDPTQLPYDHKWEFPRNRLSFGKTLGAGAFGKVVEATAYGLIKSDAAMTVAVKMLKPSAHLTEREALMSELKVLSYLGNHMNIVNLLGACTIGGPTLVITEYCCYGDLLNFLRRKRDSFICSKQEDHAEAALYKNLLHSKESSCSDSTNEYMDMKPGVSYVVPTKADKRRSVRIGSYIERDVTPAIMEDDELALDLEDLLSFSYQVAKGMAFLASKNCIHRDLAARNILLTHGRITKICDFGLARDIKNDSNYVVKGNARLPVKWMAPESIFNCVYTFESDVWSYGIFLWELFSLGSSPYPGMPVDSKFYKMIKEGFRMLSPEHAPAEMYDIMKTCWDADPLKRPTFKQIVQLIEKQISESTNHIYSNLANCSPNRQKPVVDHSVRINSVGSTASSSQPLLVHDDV
Description: as §1, §2

CSF-1R kinase = molecular target: T3, CSF-1R kinase (Homo sapiens, UniProt P07333); experiment: Competition binding assay, CSF-1R Kd
T3 construct: made in house; host or cells: T7 phage display or HEK-293 cells
T3 sequence (P07333 20-972): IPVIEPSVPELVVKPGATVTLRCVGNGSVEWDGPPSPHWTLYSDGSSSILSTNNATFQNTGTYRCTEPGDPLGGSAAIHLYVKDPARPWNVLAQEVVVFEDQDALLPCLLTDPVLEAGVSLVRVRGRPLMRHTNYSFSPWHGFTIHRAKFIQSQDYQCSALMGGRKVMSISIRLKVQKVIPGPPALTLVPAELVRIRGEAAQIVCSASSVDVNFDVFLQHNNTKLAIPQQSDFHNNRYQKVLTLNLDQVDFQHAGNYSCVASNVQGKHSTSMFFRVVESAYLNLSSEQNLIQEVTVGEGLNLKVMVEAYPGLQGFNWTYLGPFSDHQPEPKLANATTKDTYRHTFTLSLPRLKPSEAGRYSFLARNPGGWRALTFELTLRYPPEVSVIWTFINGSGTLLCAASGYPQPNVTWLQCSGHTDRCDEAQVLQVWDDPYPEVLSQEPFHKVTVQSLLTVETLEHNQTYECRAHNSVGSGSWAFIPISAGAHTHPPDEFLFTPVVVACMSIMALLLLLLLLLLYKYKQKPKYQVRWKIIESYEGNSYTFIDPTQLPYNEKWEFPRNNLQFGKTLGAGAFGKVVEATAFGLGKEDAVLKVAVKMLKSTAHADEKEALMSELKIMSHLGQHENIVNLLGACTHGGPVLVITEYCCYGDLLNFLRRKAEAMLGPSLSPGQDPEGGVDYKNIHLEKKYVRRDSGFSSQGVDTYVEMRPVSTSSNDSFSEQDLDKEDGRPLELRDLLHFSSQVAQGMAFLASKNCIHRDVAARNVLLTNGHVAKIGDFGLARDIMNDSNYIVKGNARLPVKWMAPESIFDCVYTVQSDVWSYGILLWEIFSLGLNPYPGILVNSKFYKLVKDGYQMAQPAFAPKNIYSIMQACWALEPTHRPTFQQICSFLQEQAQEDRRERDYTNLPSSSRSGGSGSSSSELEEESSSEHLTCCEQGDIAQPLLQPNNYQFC
Description: as §1, §2

MV4-11 cells = experiment: MV4-11 cell proliferation assay (Alamar Blue); type: cell-based; conditions: Homo sapiens, MV4-11, 72 h, 3 days incubation
Description: The compounds disclosed herein were tested in an MV4-11 cell proliferation assay to determine their cellular potency against Flt3. MV4-11 cells carry ITD mutation within juxtamembrane domain of Flt3 kinase which renders the kinase constitutively active. […] This assay measures the potency of compounds as Flt3 inhibitors by measuring the reduction of Alamar Blue reagent by viable cells.
MV4-11 cells were grown in an incubator at 37° C. under 5% CO2 in Iscove's media (Celgro) with 10% FBS. The cell density was kept between 1e5 and 8e5 cells/mL.
On day one of the experiment, cells were harvested and spun at 500 g for 5 min at 4° C., the supernatant aspirated and the cells resuspended in Iscove's media with 0.5% FBS. Cell density was maintained at 7.5e5 to achieve maximum viability of the cells. The resuspended cells were incubated at 37° C. in 5% CO2 overnight.
On day two of the experiment, cells were diluted to 6.4e5/mL with Iscove's media with 0.5% FBS. 100 μL of the cell suspension (64,000 cells) were aliquoted into each well of a 96-well TC-treated plate. Compounds were added at 9 different concentrations, with half-log intervals alongside a control reference compound serving as a positive control. Final DMSO concentration was kept at 0.5% and final volume at 200 μL. The cells were then incubated at 37° C. under 5% CO2 for 3 days.
On day five of the experiment, 40 μL of Alamar Blue reagent was added to each well and the mixture was allowed to incubate for 3 hours. Alamar Blue fluorescence was measured using SoftMax Pro software at 560 nm (excitation) and 590 nm (emission). IC50s were generated as an average of duplicates and represents the concentration of test compound that achieves 50% inhibition of cellular proliferation compared to negative control.

Kd (FLT3 kinase) [nM] | Kd (KIT kinase) [nM] | Kd (CSF-1R kinase) [nM] | IC50 (MV4-11 cells) [nM] | Structure (SMILES)
≤ 1 | ≤ 1 | ≤ 10 | ≤ 1 | CC(C)(C)c1cc(NC(=O)Cc2ccc(-c3cnc(N)c(C(N)=O)n3)cc2)no1 [Example 114, 5-(4-(2-(5-tert-butylisoxazol-3-ylamino)-2-oxoethyl)phenyl)-3-carbamoylpyrazin-2-aminium methanesulfonate]
≤ 1 | ≤ 1 | ≤ 10 | ≤ 1 | Nc1ccc(-c2ccc(NC(=O)Nc3cc(C4(C(F)(F)F)CC4)on3)cc2)cn1 [Example 33, 5-(4-(3-(5-(1-(trifluoromethyl)cyclopropyl)isoxazol-3-yl)ureido)phenyl)pyridin-2-aminium methanesulfonate]
≤ 1 | ≤ 1 | ≤ 10 | ≤ 1 | CC(CF)(CF)c1cc(NC(=O)Nc2ccc(-c3ccc(N)nc3)cc2)no1 [Example 34, 5-(4-(3-(5-(1,3-difluoro-2-methylpropan-2-yl)isoxazol-3-yl)ureido)phenyl)pyridin-2-aminium methanesulfonate]
1 to 10 | 1 to 10 | ≤ 10 | 10 to 100 | COc1cc(-c2ccc(N)nc2)ccc1NC(=O)Nc1cc(C(C)(CF)CF)on1 [Example 68, 5-(4-(3-(5-(1,3-difluoro-2-methylpropan-2-yl)isoxazol-3-yl)ureido)-3-methoxyphenyl)pyridin-2-aminium methanesulfonate]
≤ 1 | 1 to 10 | ≤ 10 | ≤ 1 | CC1(c2cc(NC(=O)Cc3ccc(-c4cc(F)c(N)nc4F)cc3)no2)CC1 [Example 177]
≤ 1 | 1 to 10 | ≤ 10 | ≤ 1 | CC(C)(C)c1cc(NC(=O)Cc2ccc(-c3cnc(N)nc3)cc2)no1 [Example 74, 2-(4-(2-aminopyrimidin-5-yl)phenyl)-N-(5-tert-butylisoxazol-3-yl)acetamide]
≤ 1 | ≤ 1 | ≤ 10 | 10 to 100 | CC(C)(C)c1cc(NC(=O)Nc2ccc(-c3ccc(NCCN4CCCCC4)nc3)cc2F)no1 [Example 27, 1-(5-tert-butylisoxazol-3-yl)-3-(2-fluoro-4-(6-(2-(piperidin-1-yl)ethylamino)pyridin-3-yl)phenyl)urea]
1 to 10 | 1 to 10 | ≤ 10 | 10 to 100 | CC(C)(CO)c1cc(NC(=O)Nc2ccc(-c3ccc(N)nc3)cc2)on1 [Example 81, 5-(4-(3-(3-(1-hydroxy-2-methylpropan-2-yl)isoxazol-5-yl)ureido)phenyl)pyridin-2-aminium methanesulfonate]
1 to 10 | ≤ 1 | ≤ 10 | 10 to 100 | COc1cc(-c2ccc(N)nc2)ccc1NC(=O)Nc1cc(C(C)(C)C)on1 [Example 69, 5-(4-(3-(5-tert-butylisoxazol-3-yl)ureido)-3-methoxyphenyl)pyridin-2-aminium methanesulfonate]
1 to 10 | ≤ 1 | ≤ 10 | 10 to 100 | CC(C)(F)c1cc(NC(=O)Nc2ccc(-c3ccc(NCCN4CCOCC4)nc3)cc2)on1 [Example 38, 4,4-(2-(5-(4-(3-(3-(2-fluoropropan-2-yl)isoxazol-5-yl)ureido)phenyl)pyridin-2-ylamino)ethyl)morpholin-4-ium methanesulfonate]
1 to 10 | 1 to 10 | 10 to 100 | 1 to 10 | CC(C)(C)c1cc(NC(=O)C(O)c2ccc(-c3ccc(N)nc3)cc2)no1 (centres unmarked) [Example 182]
≤ 1 | ≤ 1 | ≤ 10 | 1 to 10 | CC(C)(c1cc(NC(=O)Nc2ccc(-c3ccc(N)nc3)cn2)no1)C(F)(F)F [Example 43, 1-(6′-amino-3,3′-bipyridin-6-yl)-3-(5-(1,1,1-trifluoro-2-methylpropan-2-yl)isoxazol-3-yl)urea]
≤ 1 | ≤ 1 | ≤ 10 | 1 to 10 | CC(C)(C)c1cc(NC(=O)Cc2ccc(-c3ccc(N)nc3)cn2)no1 [Example 76, 2-(6′-amino-3,3′-bipyridin-6-yl)-N-(5-tert-butylisoxazol-3-yl)acetamide]
≤ 1 | ≤ 1 | ≤ 10 | ≤ 1 | CC(C)(C)c1cc(NC(=O)Nc2ccc(-c3ccc(NCCCN4CCOCC4)nc3)cc2)no1 [Example 28, 1-(5-tert-butylisoxazol-3-yl)-3-(4-(6-(3-morpholinopropylamino)pyridin-3-yl)phenyl)urea]
≤ 1 | 1 to 10 | ≤ 10 | ≤ 1 | CS(=O)(=O)O.Cc1cc(-c2ccc(CC(=O)Nc3cc(C4(C(F)(F)F)CC4)on3)cc2)cnc1N [Example 130, 3-methyl-5-(4-(2-oxo-2-(5-(1-(trifluoromethybcyclopropybisoxazol-3-ylamino)ethyl)phenyl)pyridin-2-aminium methanesulfonate]
≤ 1 | ≤ 1 | ≤ 10 | ≤ 1 | CC(C)c1cc(NC(=O)Cc2ccc(-c3ccc(N)nc3)cc2)no1 [Example 186]
1 to 10 | 1 to 10 | 10 to 100 | 100 to 500 | Cn1nc(C(C)(C)CO)cc1NC(=O)Nc1ccc(-c2ccc(N)nc2)cc1 [Example 82, 5-(4-(3-(3-(1-hydroxy-2-methylpropan-2-yl)-1-methyl-1H-pyrazol-5-yl)ureido)phenyl)pyridin-2-aminium methanesulfonate]
≤ 1 | 1 to 10 | 10 to 100 | 1 to 10 | Cn1cc(-c2cc(-c3ccc(CC(=O)Nc4cc(C(C)(C)C)on4)cc3)cnc2N)cn1 [Example 154]
≤ 1 | ≤ 1 | ≤ 10 | 1 to 10 | CC1(c2cc(NC(=O)Cc3ccc(-c4ccc(NCCS(C)(=O)=O)nc4)cc3)no2)CC1 [Example 185]
≤ 1 | ≤ 1 | ≤ 10 | 1 to 10 | CC1(c2cc(NC(=O)Cc3ccc(-c4cnc(N)cc4Cl)cc3)no2)CC1 [Example 172]
